These results are taken from paper PMC6628159 (Marine Drugs, 2019).

The term IC50 denotes the concentration that gives 50% inhibition.

Values joined by “and” are separate entries in the source; they are usually repeats but may differ in a detail not shown here. Equal entries are not always repeated. Where two headings read alike, the source gives them in different places.

One assay concerns the target T1, recombinant human HDAC1 (Homo sapiens, UniProt Q13547).
T1 construct: purchased BPS Biosciences
Nature of the assay: Recombinant human HDAC1 enzymatic assay (Ac-peptide-AMC, fluorescence). Format: biochemical.

In a further assay the test system is MDA-MB-231 tumor cells. In words: MTT assay, growth inhibition of MDA-MB-231 cells. Format: cell-based. To be noted: Homo sapiens, read-out: IC50 ± SD MDA-MB-231 growth inhibition.
The target in another assay is T2, recombinant human HDAC2 (Homo sapiens, UniProt Q92769).
T2 construct: purchased BPS Biosciences
T2 sequence (Q92769 whole entry): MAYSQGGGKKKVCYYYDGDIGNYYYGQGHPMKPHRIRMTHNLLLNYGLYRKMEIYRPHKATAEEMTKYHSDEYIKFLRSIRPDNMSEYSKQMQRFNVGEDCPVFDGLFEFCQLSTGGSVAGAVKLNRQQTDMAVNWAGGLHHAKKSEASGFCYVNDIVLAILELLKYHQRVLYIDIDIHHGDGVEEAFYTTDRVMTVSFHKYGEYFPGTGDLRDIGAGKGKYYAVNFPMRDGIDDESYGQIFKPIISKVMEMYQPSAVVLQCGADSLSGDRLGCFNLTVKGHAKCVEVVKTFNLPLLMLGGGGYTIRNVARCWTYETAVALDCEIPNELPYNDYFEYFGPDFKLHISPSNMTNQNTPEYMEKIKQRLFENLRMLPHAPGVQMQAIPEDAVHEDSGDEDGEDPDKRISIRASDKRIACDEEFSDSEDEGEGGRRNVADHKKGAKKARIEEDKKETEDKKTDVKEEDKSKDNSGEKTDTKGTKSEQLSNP
Nature of the assay: Recombinant human HDAC2 enzymatic assay (Ac-peptide-AMC, fluorescence). It counts as biochemical.

The test system of assay [1] is HCT116 tumor cells. Nature of the assay: MTT assay, growth inhibition of HCT116 cells. Format: cell-based. As to conditions: seven-dose IC50 mode in duplicate, four-fold serial dilution. (In general: Tetrazolium assays rely on reduction of a dye to a coloured formazan, in cell work by metabolically active cells.)
Procedure: (§1) Cells (600,000 cells/well) were seeded in 96-well plates and incubated for 24 h before being treated with various concentrations of compounds or solvent control. Cells were further incubated for 72 h and then treated with MTT and incubated for another 3 h. The media were then removed and 100 µL DMSO was added to each well. The absorbance at 550 nm was measured by a SpectraMAX340 microplate reader (Molecular Devices, Sunnyvale, CA, USA) with a reference wavelength at 690 nm.
The next assay relates to A549 tumor cells. In words: MTT assay, growth inhibition of A549 cells. It counts as cell-based. To be noted: Homo sapiens, read-out: IC50 ± SD A549 growth inhibition.
Another assay has as its target T3, recombinant human HDAC8 (Homo sapiens, UniProt Q9BY41).
T3 construct: purchased BPS Biosciences
T3 sequence (Q9BY41 1-377): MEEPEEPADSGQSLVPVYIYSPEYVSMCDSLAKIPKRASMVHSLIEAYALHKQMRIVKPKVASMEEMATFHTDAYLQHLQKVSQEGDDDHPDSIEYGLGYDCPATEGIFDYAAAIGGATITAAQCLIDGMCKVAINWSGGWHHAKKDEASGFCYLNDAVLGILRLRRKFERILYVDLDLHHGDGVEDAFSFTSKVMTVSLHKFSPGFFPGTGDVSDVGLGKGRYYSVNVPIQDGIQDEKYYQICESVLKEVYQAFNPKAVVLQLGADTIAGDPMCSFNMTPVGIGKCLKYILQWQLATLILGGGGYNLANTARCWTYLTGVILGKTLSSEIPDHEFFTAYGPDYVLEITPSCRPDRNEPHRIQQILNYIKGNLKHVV
In words: Recombinant human HDAC8 enzymatic assay (Ac-peptide-AMC, fluorescence). Format: biochemical.

The test system of the next assay is SK-OV-3 tumor cells. Nature of the assay: MTT assay, growth inhibition of SK-OV-3 cells. It counts as cell-based. As to conditions: seven-dose IC50 mode in duplicate, four-fold serial dilution.
The next assay concerns the target T4, recombinant human HDAC6 (Homo sapiens, UniProt Q9UBN7).
T4 construct: purchased BPS Biosciences
T4 sequence (Q9UBN7 1-1215): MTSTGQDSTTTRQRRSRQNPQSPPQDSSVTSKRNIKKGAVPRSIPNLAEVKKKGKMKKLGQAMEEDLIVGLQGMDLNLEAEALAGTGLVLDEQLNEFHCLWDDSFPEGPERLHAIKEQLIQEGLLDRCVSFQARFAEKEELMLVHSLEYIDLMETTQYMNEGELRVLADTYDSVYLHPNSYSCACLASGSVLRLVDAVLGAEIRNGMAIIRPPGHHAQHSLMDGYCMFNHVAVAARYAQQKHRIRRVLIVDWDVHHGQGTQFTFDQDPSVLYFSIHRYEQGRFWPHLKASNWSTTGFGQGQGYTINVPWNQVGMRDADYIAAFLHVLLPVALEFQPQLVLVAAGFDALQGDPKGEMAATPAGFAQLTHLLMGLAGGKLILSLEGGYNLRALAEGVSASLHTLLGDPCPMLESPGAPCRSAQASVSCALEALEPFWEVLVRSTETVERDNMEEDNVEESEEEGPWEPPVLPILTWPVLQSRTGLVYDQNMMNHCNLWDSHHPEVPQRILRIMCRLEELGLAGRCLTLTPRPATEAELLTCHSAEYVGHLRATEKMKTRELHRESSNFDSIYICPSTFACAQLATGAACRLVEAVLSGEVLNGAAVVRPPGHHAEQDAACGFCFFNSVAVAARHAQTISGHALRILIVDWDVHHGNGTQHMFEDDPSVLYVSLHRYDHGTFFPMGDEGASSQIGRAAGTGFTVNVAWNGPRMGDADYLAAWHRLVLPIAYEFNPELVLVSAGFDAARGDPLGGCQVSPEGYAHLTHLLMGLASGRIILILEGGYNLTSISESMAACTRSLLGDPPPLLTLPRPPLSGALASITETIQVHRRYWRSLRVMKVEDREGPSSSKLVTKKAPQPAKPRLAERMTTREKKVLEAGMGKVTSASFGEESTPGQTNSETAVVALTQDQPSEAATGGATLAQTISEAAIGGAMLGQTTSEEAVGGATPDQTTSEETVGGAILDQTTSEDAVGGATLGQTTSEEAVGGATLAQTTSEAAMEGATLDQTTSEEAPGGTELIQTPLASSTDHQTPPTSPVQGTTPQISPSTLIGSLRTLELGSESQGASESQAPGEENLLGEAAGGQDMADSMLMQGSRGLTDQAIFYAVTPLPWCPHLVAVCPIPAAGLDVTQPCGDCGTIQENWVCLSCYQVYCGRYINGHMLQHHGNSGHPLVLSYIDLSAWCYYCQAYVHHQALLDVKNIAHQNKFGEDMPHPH
In words: Recombinant human HDAC6 enzymatic assay (Ac-peptide-AMC, fluorescence). It counts as biochemical. As to conditions: read-out: IC50 ± SD HDAC6.

The target in another assay is T5, recombinant human HDAC3 (Homo sapiens, UniProt O15379).
T5 construct: purchased BPS Biosciences
T5 sequence (O15379 whole entry): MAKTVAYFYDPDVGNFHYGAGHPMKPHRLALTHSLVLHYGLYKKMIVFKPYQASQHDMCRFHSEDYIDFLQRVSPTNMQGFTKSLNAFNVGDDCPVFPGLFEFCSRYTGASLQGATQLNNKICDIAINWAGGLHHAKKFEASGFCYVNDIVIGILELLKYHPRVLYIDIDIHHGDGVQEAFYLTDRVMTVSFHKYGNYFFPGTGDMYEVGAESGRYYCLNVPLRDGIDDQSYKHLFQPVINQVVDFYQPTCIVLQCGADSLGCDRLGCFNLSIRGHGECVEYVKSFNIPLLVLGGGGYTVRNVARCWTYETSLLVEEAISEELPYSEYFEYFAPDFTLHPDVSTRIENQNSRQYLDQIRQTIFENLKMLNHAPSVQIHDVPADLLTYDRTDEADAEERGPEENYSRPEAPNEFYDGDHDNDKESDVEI
T5 sequence (Q9Y618 395-489 partner limits assumed): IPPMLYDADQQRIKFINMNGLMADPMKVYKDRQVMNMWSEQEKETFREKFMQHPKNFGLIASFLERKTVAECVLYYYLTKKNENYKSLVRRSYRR
Nature of the assay: Recombinant human HDAC3 enzymatic assay (Ac-peptide-AMC, fluorescence). To be noted: 10-dose IC50 mode in duplicate, threefold serial dilution; 60 min reaction; read-out: IC50 ± SD HDAC3. Format: biochemical.

The subject of assay [2] is HCT116 tumor cells. As to conditions: reported by Leusch; read-out: IC50 HCT116 growth inhibition (data in parentheses) (converted); cited from earlier work.
Setting [3] is: IC50 value ratio of HDAC 1 versus HDAC 6.
The mark [4] stands for this setting: 10-dose IC50 mode in duplicate, threefold serial dilution, 240 min reaction, read-out: IC50 ± SD HDAC8.

T1 sequence (Q13547 whole entry): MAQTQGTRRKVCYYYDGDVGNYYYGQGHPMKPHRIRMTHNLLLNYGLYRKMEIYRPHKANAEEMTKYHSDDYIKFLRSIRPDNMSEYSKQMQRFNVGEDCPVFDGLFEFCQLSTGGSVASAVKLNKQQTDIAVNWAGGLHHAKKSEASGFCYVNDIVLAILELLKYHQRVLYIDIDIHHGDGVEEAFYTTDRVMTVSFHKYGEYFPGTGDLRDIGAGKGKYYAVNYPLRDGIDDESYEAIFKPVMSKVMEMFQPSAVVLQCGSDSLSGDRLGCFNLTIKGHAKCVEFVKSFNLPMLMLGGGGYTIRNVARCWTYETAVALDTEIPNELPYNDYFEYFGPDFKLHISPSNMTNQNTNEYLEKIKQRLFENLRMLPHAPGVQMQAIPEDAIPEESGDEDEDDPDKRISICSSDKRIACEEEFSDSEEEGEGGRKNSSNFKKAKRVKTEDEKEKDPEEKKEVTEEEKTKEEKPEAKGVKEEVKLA
Procedure for A549 tumor cells: as §1
Procedure for MDA-MB-231 tumor cells: as §1
Procedure for SK-OV-3 tumor cells: as §1
Procedure for recombinant human HDAC1: (§2) The assays were carried out by Shanghai ChemPartner Co., Ltd. (Shanghai, China). Briefly, different concentrations of compounds were incubated with recombinant human HDAC1, HDAC2, HDAC3, HDAC6, and HDAC8 (BPS Biosciences, San Diego, CA, USA) at room temperature for 15 min, which was followed by adding Ac-peptide-AMC substrates to initiate the reaction in Tris-based assay buffer. Reaction mixtures were incubated at room temperature for 60 min in the HDAC1, HDAC2, HDAC3, and HDAC6 assays, and were incubated for 240 min in the HDAC8 assay. Then a stop solution containing trypsin was added. The coupled reaction was incubated for another 90 min at 37 °C. […] IC50 values were calculated by GraphPad Prism version 4.00 Windows (GraphPad Software, San Diego, CA, USA).
Procedure for recombinant human HDAC2: as §2
Procedure for recombinant human HDAC3: as §2
Procedure for recombinant human HDAC6: as §2
Procedure for recombinant human HDAC8: as §2

For `CCCCCCCC(=O)SCC/C=C(\F)[C@@H]1CC(=O)NCc2nc(cs2)C2=N[C@@](C)(CS2)C(=O)N[C@@H](C(C)C)C(=O)O1` [Compound 16a, S-((Z)-4-Fluoro-4-((5R,8S,11S/R)-8-isopropyl-5-methyl-6,9,13-trioxo-10-oxa-3,17-dithia-7,14,19,20-tetraazatricyclo[14.2.1.12,5]icosa-1(18),2(20),16(19)-trien-11-yl)but-3-en-1-yl) octanethioate], the IC50 on recombinant human HDAC1 is 385 ± 45 nM; in the assay with MDA-MB-231 tumor cells (MDA-MB-231, MTT, 72 h, seven-dose IC50 mode in duplicate, four-fold serial dilution) it was 3850 ± 440 nM; on recombinant human HDAC2 (read-out: IC50 ± SD HDAC2), 1817 ± 17 nM; in the assay on HCT116 tumor cells [1] (Homo sapiens, HCT-116, MTT, 72 h, read-out: IC50 ± SD HCT116 growth inhibition), 810 ± 130 nM; in the assay on A549 tumor cells (A549, MTT, 72 h, seven-dose IC50 mode in duplicate, four-fold serial dilution), 520 ± 120 nM; on recombinant human HDAC8 it was 255 ± 92 nM. Also, in the assay on SK-OV-3 tumor cells (Homo sapiens, SK-OV-3, MTT, 72 h, read-out: IC50 ± SD SK-OV-3 growth inhibition), the IC50 amounted to 250 ± 130 nM.
For the compound `C[C@@]12CSC(=N1)c1csc(n1)CNC(=O)C[C@@H](/C(F)=C/CCS)OC(=O)[C@H](Cc1ccccc1)NC2=O` [Compound 15b], the “Selectivity (HDAC1/6)” value at recombinant human HDAC1 (setting [3]) was 80. Besides, the IC50 on recombinant human HDAC1 (read-out: IC50 ± SD HDAC1) was determined as 4.2 ± 0.3 nM; on recombinant human HDAC6, 338 ± 17 nM; at recombinant human HDAC3, 37.1 ± 0.7 nM; on recombinant human HDAC2 (read-out: IC50 ± SD HDAC2), 16.2 ± 0.4 nM; on recombinant human HDAC8 (setting [4]), 17.6 ± 4.1 nM.
For `CCCCCCCC(=O)SCC/C=C/[C@@H]1CC(=O)NCc2nc(cs2)C2=N[C@@](C)(CS2)C(=O)N[C@@H](C(C)C)C(=O)O1` [Largazole, reference compound], the IC50 at recombinant human HDAC1 (10-dose IC50 mode in duplicate, threefold serial dilution, 60 min reaction, read-out: IC50 ± SD HDAC1) was 228 ± 34 nM; in the assay with HCT116 tumor cells [2] it was 44 nM; with MDA-MB-231 tumor cells (MDA-MB-231, 72 h), 1370 ± 410 nM; at recombinant human HDAC2, 1520 ± 15 nM; in the assay with HCT116 tumor cells [1] (Homo sapiens, HCT-116, 72 h, read-out: IC50 ± SD HCT116 growth inhibition, MTT, 72 h), 184 nM; in the assay with HCT116 tumor cells [1] (read-out: IC50 ± SD HCT116 growth inhibition, MTT, 72 h) it was 180 ± 10 nM. For the same compound, the IC50 in the assay on A549 tumor cells (A549, 72 h) is 460 ± 100 nM; on recombinant human HDAC8, 120 ± 58 nM; with SK-OV-3 tumor cells (Homo sapiens, SK-OV-3, 72 h, read-out: IC50 ± SD SK-OV-3 growth inhibition, MTT, 72 h), 34 nM; in the assay with SK-OV-3 tumor cells (read-out: IC50 ± SD SK-OV-3 growth inhibition, MTT, 72 h), 30 ± 10 nM.
With `CC(C)[C@@H]1NC(=O)[C@]2(C)CSC(=N2)c2csc(n2)CNC(=O)C[C@@H](/C(F)=C/CCS)OC1=O` [Compound 15a, (5R,8S,11S/R)-11-((Z)-1-Fluoro-4-mercaptobut-1-en-1-yl)-8-isopropyl-5-methyl-10-oxa-3,17-dithia-7,14,19,20-tetraazatricyclo[14.2.1.12,5]icosa-1(18),2(20),16(19)-triene-6,9,13-trione], the “Selectivity (HDAC1/6)” value at recombinant human HDAC1 (setting [3]) came to 68. The “selectivity towards HDAC 1 over HDAC 6” value on recombinant human HDAC1 (setting [3]) was “about 68 fold”. Further, the half-maximal inhibitory concentration (IC50) is 4.4 ± 0.2 nM at recombinant human HDAC1 (read-out: IC50 ± SD HDAC1); 300 ± 5 nM on recombinant human HDAC6; 39.2 nM and 39 nM on recombinant human HDAC3; 21 ± 0.3 nM at recombinant human HDAC2 (read-out: IC50 ± SD HDAC2); 8.5 ± 2.5 nM at recombinant human HDAC8 (setting [4]).
